From the supplement of paper PMC11451515

System: P12-Ichikawa
Assay: cell viability relative to DMSO control; higher = less cytotoxic
Settings: 48 h
Outline: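 Leukemia cells (NOMO1 or SEM, 500 cells/well; P12-Ichikawa, 1000 cells/well) were seeded in 5 μl in 1536-well plates after at least four passages of adaptation to each medium. They received library compounds in DMSO by pin dosing, 11 threefold points from 47 μM to 0.79 nM. Luminescence with CellTiter-Glo One was read after 48 h at 37°C. Viability is stated per plate relative to DMSO wells, with cell-free wells as background.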

[1] = HPLM + 10% dialyzed FBS, 0.000781 µM
[2] = HPLM + 10% dialyzed FBS, 0.00234 µM
[3] = HPLM + 10% dialyzed FBS, 0.00702 µM
[4] = HPLM + 10% dialyzed FBS, 0.0211 µM
[5] = HPLM + 10% dialyzed FBS, 0.0632 µM
[6] = HPLM + 10% dialyzed FBS, 0.19 µM
[7] = HPLM + 10% dialyzed FBS, 0.569 µM
[8] = HPLM + 10% dialyzed FBS, 1.71 µM
[9] = HPLM + 10% dialyzed FBS, 5.12 µM
[10] = HPLM + 10% dialyzed FBS, 15.4 µM
[11] = HPLM + 10% dialyzed FBS, 46.1 µM
[12] = RPMI 5 mM glucose + 10% FBS, 0.000781 µM
[13] = RPMI 5 mM glucose + 10% FBS, 0.00234 µM
[14] = RPMI 5 mM glucose + 10% FBS, 0.00702 µM
[15] = RPMI 5 mM glucose + 10% FBS, 0.0211 µM
[16] = RPMI 5 mM glucose + 10% FBS, 0.0632 µM
[17] = RPMI 5 mM glucose + 10% FBS, 0.19 µM
[18] = RPMI 5 mM glucose + 10% FBS, 0.569 µM
[19] = RPMI 5 mM glucose + 10% FBS, 1.71 µM
[20] = RPMI 5 mM glucose + 10% FBS, 5.12 µM
[21] = RPMI 5 mM glucose + 10% FBS, 15.4 µM
[22] = RPMI 5 mM glucose + 10% FBS, 46.1 µM
[23] = RPMI 5 mM glucose + 10% dialyzed FBS, 0.000781 µM
[24] = RPMI 5 mM glucose + 10% dialyzed FBS, 0.00234 µM
[25] = RPMI 5 mM glucose + 10% dialyzed FBS, 0.00702 µM
[26] = RPMI 5 mM glucose + 10% dialyzed FBS, 0.0211 µM
[27] = RPMI 5 mM glucose + 10% dialyzed FBS, 0.0632 µM
[28] = RPMI 5 mM glucose + 10% dialyzed FBS, 0.19 µM
[29] = RPMI 5 mM glucose + 10% dialyzed FBS, 0.569 µM
[30] = RPMI 5 mM glucose + 10% dialyzed FBS, 1.71 µM
[31] = RPMI 5 mM glucose + 10% dialyzed FBS, 5.12 µM
[32] = RPMI 5 mM glucose + 10% dialyzed FBS, 15.4 µM
[33] = RPMI 5 mM glucose + 10% dialyzed FBS, 46.1 µM

Compound	cell viability [1]	cell viability [2]	cell viability [3]	cell viability [4]	cell viability [5]	cell viability [6]	cell viability [7]	cell viability [8]	cell viability [9]	cell viability [10]	cell viability [11]	cell viability [12]	cell viability [13]	cell viability [14]	cell viability [15]	cell viability [16]	cell viability [17]	cell viability [18]	cell viability [19]	cell viability [20]	cell viability [21]	cell viability [22]	cell viability [23]	cell viability [24]	cell viability [25]	cell viability [26]	cell viability [27]	cell viability [28]	cell viability [29]	cell viability [30]	cell viability [31]	cell viability [32]	cell viability [33]
NC\1=N\C(=O)N(\C=C1F)[C@H]2C[C@H](O)[C@@H](CO)O2	118%	127%	104%	101%	90.6%	65.2%	43.7%	45.4%	37%	27.9%	36.9%																						
COC(=O)C/1=C(C)/N/C(=C(\C1C2=CC(=CC=C2)[N+]([O-])=O)C(=O)OCCCN3CCC(CC3)(C4=CC=CC=C4)C5=CC=CC=C5)C (stereo not given)	109%	101%	104%	101%	106%	101%	96.1%	107%	97.3%	92.6%	95%	107%	103%	107%	81.4%	95.7%	95.3%	98.4%	89.6%	89.6%	92.4%	93%	103%	102%	99.3%	88.3%	98.8%	95%	91.4%	94.9%	94%	94.4%	94.6%
CCC(C1CCC(C)C(O1)C(C)C(O)C(C)C(=O)C(CC)C2OC\3(O[C@]4(CC[C@@](C)(O4)C5CC[C@@](O)(CC)C(C)O5)C(O)\C=C3)C(C)CC2C)C([O-])=O (stereo not given in full)	103%	112%	109%	101%	106%	106%	105%	82.8%	74.5%	74.8%	64.5%	85%	111%	101%	111%	104%	109%	100%	73.7%	60.9%	56.1%	42.5%	96.4%	107%	109%	113%	112%	108%	86.2%	68.8%	55.7%	44.9%	41.1%
N#Cc1ccc(NC(=O)Nc2ccccc2Br)c2nn[nH]c12	101%	109%	109%	115%	119%	123%	122%	116%	125%	126%	79.1%	101%	109%	112%	120%	118%	134%	122%	117%	128%	127%	122%	103%	110%	111%	108%	117%	112%	123%	109%	121%	125%	95.7%
CN(C)CCc1c[nH]c2ccc(C[S+](=O)([O-])N3CCCC3)cc12	104%	105%	110%	114%	114%	113%	114%	111%	107%	110%	84.4%	106%	110%	110%	116%	109%	115%	118%	111%	111%	99.8%	87.5%	97.1%	101%	108%	106%	113%	107%	117%	113%	104%	96%	84.2%
O=C1CCCC(=O)C1C(=O)c1ccc(C(F)(F)F)cc1[N+](=O)[O-]	106%	106%	108%	118%	112%	113%	106%	105%	110%	98.3%	100%	123%	116%	114%	123%	113%	109%	119%	110%	111%	109%	105%	113%	113%	107%	110%	115%	110%	108%	110%	108%	104%	99.5%
Clc1ccccc1C(c1ccccc1)(c1ccccc1)n1ccnc1	108%	114%	107%	115%	108%	110%	107%	96.7%	100%	91.7%	74.8%												103%	114%	112%	108%	106%	110%	103%	102%	88.6%	93.8%	58.5%
Oc1ccc(-c2ccc(-c3cc(Nc4cccc(CNC5CC5)c4)[nH]n3)cc2)c(O)c1	104%	103%	112%	104%	96.1%	112%	104%	92.3%	32.2%	38%	64.1%	99.4%	98.1%	115%	114%	98.5%	116%	108%	89%	23.2%	13.5%	23.4%	101%	114%	105%	125%	111%	112%	104%	101%	58.8%	32.9%	43.2%
CC(C)(C)OC(=O)Nc1ccc(-c2cc(C(=O)NCCCCCCC(=O)NO)no2)cc1	90.9%	94.6%	92.3%	95.2%	93.3%	92.5%	92.8%	45.8%	40.7%	4.57%	4.67%	87.8%	85.6%	87%	88.1%	80.1%	80%	84.8%	32.5%	35.3%	3.1%	3.16%	88.4%	90.5%	83.7%	86.6%	82.6%	85.4%	83%	9.73%	7.46%	3.76%	3.52%
Oc1c(Cl)cc(Cl)c2cccnc12	107%	112%	109%	100%	105%	107%	112%	103%	109%	97.4%	70.6%	100%	95.4%	109%	107%	108%	102%	101%	101%	96.2%	80.8%	30.5%	99.1%	99.4%	110%	95.2%	102%	101%	103%	99.1%	96.8%	85.5%	21.8%
COC(=O)[C@H](c1ccccc1Cl)N1CCc2sccc2C1	95.8%	99.1%	100%	109%	108%	113%	107%	110%	102%	15.7%	12.9%	101%	113%	120%	117%	120%	125%	122%	113%	115%	21.4%	14.1%	91.6%	105%	109%	111%	115%	111%	118%	117%	104%	45.9%	18.7%
CCN(CC)CCCC(C)Nc1nc(C)cc(Nc2ccc3nc(C)cc(N)c3c2)n1 (stereo not given)	101%	107%	109%	117%	122%	122%	126%	115%	130%	114%	118%	108%	109%	104%	121%	117%	126%	124%	112%	129%	107%	112%	107%	113%	111%	120%	117%	123%	126%	124%	126%	118%	101%
CN(C)[C@@H](CCOc1cccc2ccccc12)c1ccccc1	112%	111%	113%	115%	115%	112%	109%	104%	101%	104%	88.5%	116%	118%	131%	122%	113%	116%	115%	101%	92.2%	110%	73.1%	111%	102%	114%	110%	115%	105%	111%	108%	98.2%	106%	67.1%
COc1cc2ncnc(Nc3cccc(Cl)c3)c2cc1OC	112%	107%	97.3%	99.6%	89.2%	73%	68.3%	44.8%	46.1%	45.4%	3.51%	97.7%	99.1%	98.5%	107%	87.9%	66.8%	69.1%	32.7%	25.1%	22.9%	19%	111%	102%	109%	106%	90.8%	72.1%	69.4%	32%	25.1%	23%	15.7%
CN1CCN(CCCN2c3ccccc3Sc3ccc(Cl)cc32)CC1.O=C(O)/C=C\C(=O)O.O=C(O)/C=C\C(=O)O	108%	108%	105%	105%	106%	107%	114%	99%	108%	36.1%	34.8%	119%	110%	125%	126%	119%	137%	122%	112%	114%	29.5%	31.2%	106%	105%	106%	108%	116%	112%	111%	110%	104%	28.1%	32.1%
O=C(NCC1CCOCC1)c1cnc(Nc2ccc(Cl)cc2Cl)nc1C(F)(F)F	102%	111%	115%	118%	109%	117%	118%	115%	115%	121%	124%	100%	127%	123%	121%	130%	131%	112%	131%	123%	132%	118%	98%	115%	114%	127%	123%	132%	120%	122%	122%	127%	123%
